Assay results published in patent publication US20230265116A1, “DEGRADATION OF (EGFR) BY CONJUGATION OF EGFR INHIBITORS WITH E3 LIGASE LIGAND AND METHODS OF USE” (BEIGENE, LTD., priority 2020, published 2023).

Experiments:
Format in all cases: cell-based
[1] = system: EGFR Del19/C797S (H1975-clone #23); experiment: EGFR degradation HTRF assay, H1975-clone #23 DC cells; details: 16h treatment; for H1975 #23 DC Dmax (%): maximum percentage of degradation; for DC50: H1975 #23 DC, read-out: H1975 #23 DC DC50
Method in brief: (§1)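 Engineered H1975 lines (lentiviral mutant EGFR, endogenous EGFR knocked out, single-clone verified); 16h compound, 37° C., 5% CO2, 0.2% DMSO; 8-point 5-fold series from 10 uM final. HTRF lysate read; % degradation vs DMSO, four-parameter fit → DC50, Dmax.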

[2] = target: T1, EGFR L858R/T790M/C797S (BaF3-LTC cells) (Homo sapiens, UniProt P00533, C797S/L858R/T790M); experiment: EGFR degradation HTRF assay, BaF3-LTC cells; details: BaF3-LTC cells; for DC50: EGFR degradation, IC50 (DC50) from curve fit, read-out: DC50(nM) BaF3-LTC; for Dmax: maximum percentage of inhibition (degradation), read-out: Dmax (%) BaF3-LTC
T1 construct: expressed in transfected cells; host or cells: BaF3
Method in brief: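 Cells treated 16 h at 37 °C, 5% CO2 in medium with 0.2% DMSO; top final concentration 10 uM, 5-fold dilution, 8 doses. Lysates read by HTRF (665/620 nm); degradation % versus DMSO high control, DC50 from four-parameter fit, Dmax as maximal degradation.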

[3] = system: EGFR Del19/T790M/C797S (H1975-clone #28); experiment: EGFR degradation HTRF assay, H1975-clone #28 DTC cells; details: H1975 # 28 DTC cells; for DC50: EGFR degradation, IC50 (DC50) from curve fit, read-out: DC50(nM) H1975 # 28 DTC; for Dmax (%) H1975 # 28 DTC: maximum percentage of inhibition (degradation)
Method in brief: as §1

[4] = target: T2, EGFR L858R/C797S (BaF3 LC cells) (Homo sapiens, UniProt P00533, C797S/L858R); experiment: EGFR degradation HTRF assay, BaF3 LC cells; details: BaF3 LC, 16h treatment; for DC50: read-out: BaF3 LC DC50; for Dmax: maximum percentage of degradation, read-out: BaF3 LC Dmax (%)
T2 construct: expressed in transfected cells; host or cells: BaF3
T2 sequence (P00533 25-1210 C797S/L858R): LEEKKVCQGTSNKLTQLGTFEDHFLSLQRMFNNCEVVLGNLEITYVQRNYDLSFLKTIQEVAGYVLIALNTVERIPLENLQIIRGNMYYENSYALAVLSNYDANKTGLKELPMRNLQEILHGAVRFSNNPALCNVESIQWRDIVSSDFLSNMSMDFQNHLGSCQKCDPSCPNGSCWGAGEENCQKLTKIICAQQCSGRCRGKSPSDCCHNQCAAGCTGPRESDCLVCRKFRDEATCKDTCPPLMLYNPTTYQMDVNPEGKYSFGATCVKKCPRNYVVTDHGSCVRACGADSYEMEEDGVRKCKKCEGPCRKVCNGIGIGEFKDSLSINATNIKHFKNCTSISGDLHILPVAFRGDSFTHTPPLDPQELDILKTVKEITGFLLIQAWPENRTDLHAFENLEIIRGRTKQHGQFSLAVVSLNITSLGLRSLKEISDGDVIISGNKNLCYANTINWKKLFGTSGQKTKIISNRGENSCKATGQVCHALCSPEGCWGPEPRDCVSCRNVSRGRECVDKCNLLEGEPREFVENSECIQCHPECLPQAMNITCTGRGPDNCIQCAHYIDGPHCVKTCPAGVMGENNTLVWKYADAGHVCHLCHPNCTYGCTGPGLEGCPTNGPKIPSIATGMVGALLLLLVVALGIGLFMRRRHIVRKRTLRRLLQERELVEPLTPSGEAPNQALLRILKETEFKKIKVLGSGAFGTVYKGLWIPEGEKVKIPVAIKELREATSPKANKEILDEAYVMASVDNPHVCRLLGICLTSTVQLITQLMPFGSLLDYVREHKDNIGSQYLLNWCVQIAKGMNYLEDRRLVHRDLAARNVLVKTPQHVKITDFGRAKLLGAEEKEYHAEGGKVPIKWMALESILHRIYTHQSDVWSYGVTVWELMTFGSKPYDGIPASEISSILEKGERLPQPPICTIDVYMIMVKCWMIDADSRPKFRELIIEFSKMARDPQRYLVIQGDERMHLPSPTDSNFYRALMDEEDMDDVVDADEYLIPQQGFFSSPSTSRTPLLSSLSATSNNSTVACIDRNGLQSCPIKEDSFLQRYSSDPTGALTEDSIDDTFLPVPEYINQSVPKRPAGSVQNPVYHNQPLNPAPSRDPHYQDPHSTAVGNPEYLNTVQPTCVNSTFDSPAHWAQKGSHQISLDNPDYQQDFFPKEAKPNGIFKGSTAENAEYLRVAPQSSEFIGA

T1 sequence (P00533 25-1210 T790M/C797S/L858R): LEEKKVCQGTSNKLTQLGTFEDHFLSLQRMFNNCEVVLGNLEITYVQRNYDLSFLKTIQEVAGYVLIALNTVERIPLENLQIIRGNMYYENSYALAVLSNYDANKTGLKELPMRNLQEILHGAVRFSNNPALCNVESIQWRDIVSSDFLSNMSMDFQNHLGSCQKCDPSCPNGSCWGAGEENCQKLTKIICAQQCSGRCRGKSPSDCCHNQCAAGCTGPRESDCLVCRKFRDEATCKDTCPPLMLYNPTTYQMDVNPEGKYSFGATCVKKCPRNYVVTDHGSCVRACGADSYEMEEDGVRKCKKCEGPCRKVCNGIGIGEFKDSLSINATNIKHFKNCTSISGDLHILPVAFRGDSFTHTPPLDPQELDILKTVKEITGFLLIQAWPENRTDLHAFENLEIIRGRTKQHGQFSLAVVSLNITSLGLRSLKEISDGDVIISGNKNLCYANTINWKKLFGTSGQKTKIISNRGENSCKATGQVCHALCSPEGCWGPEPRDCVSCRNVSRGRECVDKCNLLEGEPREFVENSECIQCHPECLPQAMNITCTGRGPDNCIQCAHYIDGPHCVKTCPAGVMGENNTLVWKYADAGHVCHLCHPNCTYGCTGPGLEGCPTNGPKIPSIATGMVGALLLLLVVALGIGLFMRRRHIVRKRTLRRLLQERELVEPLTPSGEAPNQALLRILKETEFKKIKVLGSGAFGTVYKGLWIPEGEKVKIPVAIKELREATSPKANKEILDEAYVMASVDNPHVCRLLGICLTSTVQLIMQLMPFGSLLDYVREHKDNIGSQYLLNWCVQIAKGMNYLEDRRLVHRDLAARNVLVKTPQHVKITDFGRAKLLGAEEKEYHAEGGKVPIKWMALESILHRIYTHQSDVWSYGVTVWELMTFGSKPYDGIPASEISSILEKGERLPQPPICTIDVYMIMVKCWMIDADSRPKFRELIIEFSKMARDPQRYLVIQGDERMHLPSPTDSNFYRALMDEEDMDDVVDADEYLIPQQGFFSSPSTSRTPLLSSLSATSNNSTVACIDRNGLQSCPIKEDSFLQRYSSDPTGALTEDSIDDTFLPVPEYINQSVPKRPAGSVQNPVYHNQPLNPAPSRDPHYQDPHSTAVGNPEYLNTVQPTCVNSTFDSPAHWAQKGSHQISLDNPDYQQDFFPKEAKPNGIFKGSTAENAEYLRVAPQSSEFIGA

| SMILES | H1975 #23 DC Dmax (%) [1] [%] | DC50 [1] [nM] | DC50 [2] [nM] | DC50 [3] [nM] | Dmax (%) H1975 # 28 DTC [3] [%] | DC50 [4] [nM] | Dmax [2] [%] | Dmax [4] [%] |
| --- | --- | --- | --- | --- | --- | --- | --- | --- |
| CCOc1cc(N2CCC(N3CCN(CCc4cccc5c4C(C)(C)C(=O)N5C4CCC(=O)NC4=O)CC3)CC2)c(CC)cc1Nc1ncc(Br)c(Nc2ccc3c(=O)n(CC)ncc3c2P(C)(C)=O)n1 (centres unmarked) [Example 501, 3-(4-(2-(4-(1-(4-((5-bromo-4-((5-(dimethylphosphoryl)-2-ethyl-1-oxo-1,2-dihydrophthalazin-6-yl)amino)pyrimidin-2-yl)amino)-5-ethoxy-2-ethylphenyl)piperidin-4-yl)piperazin-1-yl)ethyl)-3,3-dimethyl-2-oxoindolin-1-yl)piperidine-2,6-dione] | 65.52 | 3.29 | 3.34 | 0.759 | 85.93 | 1.49 |  |  |
| CCOc1cc(N2CCC(N3CCN(CCc4cc(F)c([C@H]5CCC(=O)NC5=O)c(F)c4)CC3)CC2)c(CC)cc1Nc1ncc(Br)c(Nc2ccc3c(=O)n(C)ncc3c2P(C)(C)=O)n1 [Example 502, (R)-3-(4-(2-(4-(1-(4-((5-bromo-4-((5-(dimethylphosphoryl)-2-methyl-1-oxo-1,2-dihydrophthalazin-6-yl)amino)pyrimidin-2-yl)amino)-5-ethoxy-2-ethylphenyl)piperidin-4-yl)piperazin-1-yl)ethyl)-2,6-difluorophenyl)piperidine-2,6-dione] | 75.93 | 5.49 | 3.02 | 0.404 | 88.96 | 57.2 |  |  |
| CCOc1cc(N2CCC(N3CCN(CCc4c(F)ccc5c4n(C)c(=O)n5C4CCC(=O)NC4=O)CC3)CC2)c(CC)cc1Nc1ncc(Br)c(Nc2ccc3nc(CC)ccc3c2P(C)(C)=O)n1 (centres unmarked) [Example 503, 3-(4-(2-(4-(1-(4-((5-bromo-4-((5-(dimethylphosphoryl)-2-ethylquinolin-6-yl)amino)pyrimidin-2-yl)amino)-5-ethoxy-2-ethylphenyl)piperidin-4-yl)piperazin-1-yl)ethyl)-5-fluoro-3-methyl-2-oxo-2,3-dihydro-1H-benzo[d]imidazol-1-yl)piperidine-2,6-dione] | 81.03 | 1.57 | 7 | 1.34 | 79.81 | 7.53 |  |  |
| CCOc1cc(N2CCC(N3CCN(CCc4cccc5c4n(CC)c(=O)n5C4CCC(=O)NC4=O)CC3)CC2)c(CC)cc1Nc1ncc(Br)c(Nc2ccc3nc(CC)ccc3c2P(C)(C)=O)n1 (centres unmarked) [Example 504, 3-(4-(2-(4-(1-(4-((5-bromo-4-((5-(dimethylphosphoryl)-2-ethylquinolin-6-yl)amino)pyrimidin-2-yl)amino)-5-ethoxy-2-ethylphenyl)piperidin-4-yl)piperazin-1-yl)ethyl)-3-ethyl-2-oxo-2,3-dihydro-1H-benzo[d]imidazol-1-yl)piperidine-2,6-dione] | 78.25 | 2.95 | 6.56 | 0.962 | 75.99 | 12.4 |  |  |
| CCOc1cc(N2CCC(N3CCN(CCc4ccc(F)c5c4oc(=O)n5C4CCC(=O)NC4=O)CC3)CC2)c(CC)cc1Nc1ncc(Br)c(Nc2ccc3nc(CC)ccc3c2P(C)(C)=O)n1 (centres unmarked) [Example 505, 3-(7-(2-(4-(1-(4-((5-bromo-4-((5-(dimethylphosphoryl)-2-ethylquinolin-6-yl)amino)pyrimidin-2-yl)amino)-5-ethoxy-2-ethylphenyl)piperidin-4-yl)piperazin-1-yl)ethyl)-4-fluoro-2-oxobenzo[d]oxazol-3(2H)-yl)piperidine-2,6-dione] | 68.68 | 3.17 | 9.43 | 0.925 | 77.6 | 8.88 |  |  |
| CCc1cc(Nc2ncc(Br)c(Nc3ccc4nc(C)ccc4c3P(C)(C)=O)n2)c(OC)cc1N1CCC(N2CCN(CCc3cccc4c3oc(=O)n4C3CCC(=O)NC3=O)CC2)CC1 (centres unmarked) [Example 506, 3-(7-(2-(4-(1-(4-((5-bromo-4-((5-(dimethylphosphoryl)-2-methylquinolin-6-yl)amino)pyrimidin-2-yl)amino)-2-ethyl-5-methoxyphenyl)piperidin-4-yl)piperazin-1-yl)ethyl)-2-oxobenzo[d]oxazol-3(2H)-yl)piperidine-2,6-dione] | 80.87 | 2.04 | 6.1 | 0.96 | 84.41 | 22.5 | 93 | 91.7 |
| CCc1cc(Nc2ncc(Br)c(Nc3ccc4nc(C)ccc4c3P(C)(C)=O)n2)c(OC)cc1N1CCC(N2CCN(C(=O)C3CN(c4cccc5c4C(C)(C)C(=O)N5C4CCC(=O)NC4=O)C3)CC2)CC1 (centres unmarked) [Example 507] | 52.12 | 2.41 | 4.3 | 0.5 | 68.8 | 8.97 | 89.8 | 94 |
| CCc1ccc2c(P(C)(C)=O)c(Nc3nc(Nc4cc(CC)c(N5CCC(N6CCN(CCc7cccc8c7oc(=O)n8C7CCC(=O)NC7=O)CC6)CC5)cc4OC)ncc3Br)ccc2n1 (centres unmarked) [Example 509, 3-(7-(2-(4-(1-(4-((5-bromo-4-((5-(dimethylphosphoryl)-2-ethylquinolin-6-yl)amino)pyrimidin-2-yl)amino)-2-ethyl-5-methoxyphenyl)piperidin-4-yl)piperazin-1-yl)ethyl)-2-oxobenzo[d]oxazol-3(2H)-yl)piperidine-2,6-dione] | 77.77 | 1.94 | 7.93 | 0.887 | 79.34 | 15.5 | 92.5 | 80.4 |
| CCc1cc(Nc2ncc(Br)c(Nc3cc(F)c4nc(C)ccc4c3P(C)(C)=O)n2)c(OC)cc1N1CCC(N2CCN(C(=O)[C@@H]3CCN(c4cc(F)c([C@H]5CCC(=O)NC5=O)c(F)c4)C3)CC2)CC1 [Example 511, (R)-3-(4-((R)-3-(4-(1-(4-((5-bromo-4-((5-(dimethylphosphoryl)-8-fluoro-2-methylquinolin-6-yl)amino)pyrimidin-2-yl)amino)-2-ethyl-5-methoxyphenyl)piperidin-4-yl)piperazine-1-carbonyl)pyrrolidin-1-yl)-2,6-difluorophenyl)piperidine-2,6-dione] | 67.01 | 3.3 | 10.6 | 1.04 | 65 | 9.67 | 92.5 | 88.9 |
| CCc1cc(Nc2ncc(Br)c(Nc3ccc4nc(C)ccc4c3P(C)(C)=O)n2)c(OC)cc1N1CCC(N2CCN(CCc3cccc4c3C(C)(C)C(=O)N4C3CCC(=O)NC3=O)CC2)CC1 (centres unmarked) [Example 514, 3-(4-(2-(4-(1-(4-((5-bromo-4-((5-(dimethylphosphoryl)-2-methylquinolin-6-yl)amino)pyrimidin-2-yl)amino)-2-ethyl-5-methoxyphenyl)piperidin-4-yl)piperazin-1-yl)ethyl)-3,3-dimethyl-2-oxoindolin-1-yl)piperidine-2,6-dione] | 76.66 | 1.83 | 3.51 | 0.771 | 66.48 | 3.51 | 94.3 | 94 |
| CCc1cc(Nc2ncc(Br)c(Nc3ccc4c(=O)n(C5CC5)ncc4c3P(C)(C)=O)n2)c(OC)cc1N1CCC(N2CCN(CCc3cc(F)c(C4CCC(=O)NC4=O)c(F)c3)CC2)CC1 (centres unmarked) [Example 521, 3-(4-(2-(4-(1-(4-((5-bromo-4-((2-cyclopropyl-5-(dimethylphosphoryl)-1-oxo-1,2-dihydrophthalazin-6-yl)amino)pyrimidin-2-yl)amino)-2-ethyl-5-methoxyphenyl)piperidin-4-yl)piperazin-1-yl)ethyl)-2,6-difluorophenyl)piperidine-2,6-dione] | 75.56 | 5.9 | 17 | 1.01 | 80.24 | 51.6 | 87.4 | 74.6 |
| CCc1cc(Nc2ncc(Br)c(Nc3ccc4c(=O)n(C5CC5)ncc4c3P(C)(C)=O)n2)c(OC)cc1N1CCC(N2CCN(C(=O)[C@@H]3CCN(c4cc(F)c([C@H]5CCC(=O)NC5=O)c(F)c4)C3)CC2)CC1 [Example 526, (R)-3-(4-((R)-3-(4-(1-(4-((5-bromo-4-((2-cyclopropyl-5-(dimethylphosphoryl)-1-oxo-1,2-dihydrophthalazin-6-yl)amino)pyrimidin-2-yl)amino)-2-ethyl-5-methoxyphenyl)piperidin-4-yl)piperazine-1-carbonyl)pyrrolidin-1-yl)-2,6-difluorophenyl)piperidine-2,6-dione] | 52.26 | 5.87 | 3.77 | 0.574 | 83.99 | 40.3 | 96.3 | 74.6 |
